From patent US5792750A, “Materials and method for control of pests” (priority 1997, dated 1998)
No end group written: not given here.

Tests used:
[1] = test system: trypsin-like enzyme biosynthesis in the midgut; assay: Inhibition of trypsin-like enzyme biosynthesis after injection of peptides into ligated abdomens of blood-fed female mosquitoes; type: in vivo, Aedes aegypti; settings: for biological activity: against Aedes aegypti, compared with TMOF or among the analogs; for ability to inhibit trypsin-like enzyme biosynthesis: ligated abdomens of female A. aegypti, 24 hours after injection
[2] = Stability in solution of mosquito homogenate (including digestive enzymes); type: in vitro ADME; settings: room temperature, two weeks
Excerpt: The compounds of the subject invention are white powders that are highly soluble in water. They can be synthesized on a commercial peptide synthesizer. […] Thus, these peptides are particularly attractive for the control of mosquitoes and other pests. Another advantage of the penta- and octa-peptides of the subject invention is that they are more rapidly absorbed in the insect gut. […] Thus, the novel peptides display a more rapid action, a decreased chance for insect gut enzymes to proteolyze the peptide, and high activity. The peptides were not affected by 1% trifluoroacetic acid and were routinely purified using this acid on HPLC.

Substance | biological activity [1] | ability to inhibit trypsin-like enzyme biosynthesis [1] | activity after standing in mosquito homogenate [2]
YDPAP [Peptide P1, H2 N--YDPAP--COOH] | even greater activity than the octa-peptideP4 | demonstrated an ability to inhibit trypsin-like enzyme biosynthesis | without loss of activity
YDPAPPPPPP [TMOF, reference compound] | – | demonstrated an ability to inhibit trypsin-like enzyme biosynthesis | –
YDPAPPPP [Peptide P4, H2 N--YDPAP4 --COOH] | retains biological activity | demonstrated an ability to inhibit trypsin-like enzyme biosynthesis | –
